The text below walks through data of patent US20250129334A1, “LINEAGE SPECIFICATION DURING STEM CELL TRANSITION” (Amniotics AB, priority 2021, published 2025).

Assay [1] has as its system iPSC-CD34+. Put plainly: NK cell cytotoxic degranulation (CD107) with or without K562 co-culture. The assay is classed as cell-based, human. To be noted: for degranulated NK cells (CD3-CD56+CD16+CD107+ cells) / increase in degranulated NK cells vs untreated control / basal degranulation: absence of K562; for degranulated NK cells (CD3-CD56+CD16+CD107+ cells) / increase in degranulated NK cells vs untreated control: DCA 10 mM, CP 2.5 μM, cholesterol 0.5x; for basal degranulation: vs ctrl; for level of degranulated NK cells when exposed to K562 cells: co-culture with K562. The text has this: NK cell anti-tumour activity can occur via cytotoxic degranulation. CD107 is a marker that is present in the cytotoxic vesicles of NK cells, and so is not expressed on the cell surface of inactivated NK cells. However, upon NK cell activation and degranulation, the CD107 target becomes detectable on the cell surface. Therefore, the level of CD107 detected on NK cells correlates with cytotoxic degranulation. In this assay, several exemplary metabolic regulators were used to assess cytotoxic degranulation in a co-culture assay with K562 cells (an exemplary cancer cell model). As a negative control, iPSC-CD34^+ untreated with a metabolic regulator were used, in which a basal level of 3.27% of degranulated NK cells (CD3^−CD56^+CD16^+CD107^+ cells) were observed (FIG. 16A, top panel).

Assay [2] deals with HE cells. Put plainly: HE subculture with metabolic regulators, flow cytometry of hematopoietic output. The assay is classed as cell-based, human. From the text: The RB9-CB1 human iPSC line (Woods, N.-B. et al. Brief report: efficient generation of hematopoietic precursors and progenitors from human pluripotent stem cell lines. Stem Cells 29, 1158-1164 (2011)) was co-cultured with mouse embryonic fibroblasts (MEFs, Millipore), passaged every six days and processed to form embryoid bodies (EBs) as described previously (Guibentif, C. et al. Single-Cell Analysis Identifies Distinct Stages of Human Endothelial to-Hematopoietic Transition. Cell Reports 19, 10-19 (2017)). The differentiation protocol used in this study was previously described (Ditadi, A. & Sturgeon, C. M. Directed differentiation of definitive hemogenic endothelium and hematopoietic progenitors from human pluripotent stem cells. Methods 101, 65-72 (2016)), however, small modifications were made to induce both primitive and definitive hematopoiesis, as indicated below and in FIG. 6, a. Newly-formed EBs were first kept in SFD medium supplemented with 1 ng/ml Activin A (on days 0-2) and 3 μM CHIR99021 (on day 2 only). At day 3, media was switched to “Day 3-SP34” medium supplemented with 1 ng/ml Activin A (on day 3 only) and 3 μM CHIR99021 (on day 3 only) until day 6. On day 6, media was replaced by “Day 6-SP34” medium, until day 8. In some experiments where indicated, to obtain a higher yield of HSC-like cells, EBs were kept until day 10: in this case, EBs were plated onto Matrigel (8 μg/cm2, Corning)-coated dishes on day 8 and kept until day 10. Media was changed every day, except on days 5 and 7. On day 8 or 10 (as indicated), EBs were singularized with 5-6 rounds of 5-minute incubations with TryPLE Express (Thermo Fisher Scientific). CD34^+ cells were selected using the human CD34 MicroBead kit (Miltenyi Biotec) and stained with CD34-FITC, CD73-PE, VECad-PerCPCy5.5, CD38-PC7, CD184-APC, CD45-AF700, CD43-APCH7, GPA-eF450, CD90-BV605 and the viability marker 7AAD in order to sort HE (CD34^+CD43^−CXCR4^−CD73^−CD90^+VECad^+), EHT (CD34^+CD43^intCXCR4^−CD73^−CD90^+VECad^+) and HSC-like (CD34^+CD43^+CD90^+CD38^−) cells, according to previously described markers (Guibentif, C. et al. Single-Cell Analysis Identifies Distinct Stages of Human Endothelial to-Hematopoietic Transition. Cell Reports 19, 10-19 (2017); Ditadi, A. et al. Human definitive haemogenic endothelium and arterial vascular endothelium represent distinct lineages. Nat Cell Biol 17, 580-591 (2015); and Choi, K.-D. et al. Identification of the Hemogenic Endothelial Progenitor and Its Direct Precursor in Human Pluripotent Stem Cell Differentiation Cultures. Cell Reports 2, 553-567 (2012)).
Sorted HE (40,000), EHT (30,000) and HSC-like (5-20,000) cells were plated onto Matrigel (16 μg/cm2, Corning)-coated 96-well flat bottom plates in HE medium with 1% penicillin-streptomycin and kept in a humidified incubator at 37° C., 5% C02, 4% 02 overnight. The following day (day 0), wells were washed twice with PBS and fresh HE medium was added, together with 2-DG (1 mM), UK5099 (10 μM), DCA (3 mM or 10 mM), TSA (60 nM), TCP (300 nM), ACSS2i (5 μM), C646 (10 μM), CP-640186 (5 μM) or Atorvastatin (0.5 μM), where indicated. Media was changed and drugs were added every 2 days and cells were kept in a humidified incubator at 37° C., 5% CO2, 20% O2 for 6-7 days. Pictures were taken using an Olympus IX70 microscope equipped with a CellSens DP72 camera and CellSens Standard 1.6 software (Olympus). For single cell subcultures, single HE cells were directly sorted with a BD FACSAriaIII onto OP9-DL1 stroma in flat-bottom 96-well plates with 120 μl OP9 medium (OptiMEM medium with Glutamax (Invitrogen) with 10% FCS, 1% penicillin-streptomycin solution (Thermo Fisher Scientific) and 1% 2-mercaptoethanol (Invitrogen)) with SCF, IL-6, IL-11, IGF1 and EPO, and with or without 10 μM UK, or 3 mM or 10 mM DCA. The cells were kept in a humidified incubator at 37° C., 5% CO2, 4% O2 and media was replaced every 4 days. […]
A general note: Flow cytometry measures light scatter and fluorescence of single cells or particles in a stream.

Assay [3] deals with HE, EHT and HSC-like cells. To be noted: 100 μM FCCP; all cell types. As for the experimental part: On days 3 and 6 of subculture, cells were collected after a 2-minute incubation at 37° C. with StemPro Accutase Cell Dissociation Reagent and stained with CD34-FITC, CD14-PE, CD33-PC7, CD11b-APC, CD45-AF700, CD43-APCH7, GPA-eF450, CD90-BV605 and the viability marker 7AAD and fluorescence was measured on a BD LSRII. To measure mitochondrial activity, cells were incubated with Tetramethylrhodamine ethyl ester (TMRE, 20 nM) for 30 minutes at 37° C. Negative controls were incubated with 100 μM FCCP for 30 minutes at 37° C., prior to TMRE staining. […] III and MFI levels—MFI FMO were calculated. […] III. To measure proliferation, cells were processed with the CellTrace Violet (CTV) kit according to manufacturer's instructions (10-minute incubation) and fluorescence was measured on a BD LSRFortessa. To measure EdU incorporation, HE cells were assessed on day 1 or 2 of subculture after 24 h EdU pulses, using Click-iT EdU Flow Cytometry Cell Proliferation Assay (Thermo Fisher Scientific, C10424), according to manufacturer's instructions. Flow cytometry outputs were analyzed on FlowJo Software, with initial gatings on SSC-A/FSC-A, FSC-H/FSC-A, SSC-H/SSC-A and 7-AAD to exclude doublets and dead cells in all experiments.

Assay [4] concerns HSC-like cells. The assay is described as follows: HSC-like cell subculture with metabolic regulators, flow cytometry. As to conditions: day 3, 2-DG 1 mM. The format is cell-based, human. From the text: The RB9-CB1 human iPSC line (Woods, N.-B. et al. Brief report: efficient generation of hematopoietic precursors and progenitors from human pluripotent stem cell lines. Stem Cells 29, 1158-1164 (2011)) was co-cultured with mouse embryonic fibroblasts (MEFs, Millipore), passaged every six days and processed to form embryoid bodies (EBs) as described previously (Guibentif, C. et al. Single-Cell Analysis Identifies Distinct Stages of Human Endothelial to-Hematopoietic Transition. Cell Reports 19, 10-19 (2017)). The differentiation protocol used in this study was previously described (Ditadi, A. & Sturgeon, C. M. Directed differentiation of definitive hemogenic endothelium and hematopoietic progenitors from human pluripotent stem cells. Methods 101, 65-72 (2016)), however, small modifications were made to induce both primitive and definitive hematopoiesis, as indicated below and in FIG. 6, a. Newly-formed EBs were first kept in SFD medium supplemented with 1 ng/ml Activin A (on days 0-2) and 3 μM CHIR99021 (on day 2 only). At day 3, media was switched to “Day 3-SP34” medium supplemented with 1 ng/ml Activin A (on day 3 only) and 3 μM CHIR99021 (on day 3 only) until day 6. On day 6, media was replaced by “Day 6-SP34” medium, until day 8. […]

Assay [5] relates to EHT cells. The assay is described as follows: EHT cell subculture with metabolic regulators, flow cytometry. The assay is classed as cell-based, human. To be noted: EHT cells; day 3; 2-DG 1 mM. The text has this:
The RB9-CB1 human iPSC line (Woods, N.-B. et al. Brief report: efficient generation of hematopoietic precursors and progenitors from human pluripotent stem cell lines. Stem Cells 29, 1158-1164 (2011)) was co-cultured with mouse embryonic fibroblasts (MEFs, Millipore), passaged every six days and processed to form embryoid bodies (EBs) as described previously (Guibentif, C. et al. Single-Cell Analysis Identifies Distinct Stages of Human Endothelial to-Hematopoietic Transition. Cell Reports 19, 10-19 (2017)). The differentiation protocol used in this study was previously described (Ditadi, A. & Sturgeon, C. M. Directed differentiation of definitive hemogenic endothelium and hematopoietic progenitors from human pluripotent stem cells. Methods 101, 65-72 (2016)), however, small modifications were made to induce both primitive and definitive hematopoiesis, as indicated below and in FIG. 6, a. Newly-formed EBs were first kept in SFD medium supplemented with 1 ng/ml Activin A (on days 0-2) and 3 μM CHIR99021 (on day 2 only). At day 3, media was switched to “Day 3-SP34” medium supplemented with 1 ng/ml Activin A (on day 3 only) and 3 μM CHIR99021 (on day 3 only) until day 6. On day 6, media was replaced by “Day 6-SP34” medium, until day 8. In some experiments where indicated, to obtain a higher yield of HSC-like cells, EBs were kept until day 10: in this case, EBs were plated onto Matrigel (8 μg/cm2, Corning)-coated dishes on day 8 and kept until day 10. Media was changed every day, except on days 5 and 7. On day 8 or 10 (as indicated), EBs were singularized with 5-6 rounds of 5-minute incubations with TryPLE Express (Thermo Fisher Scientific). […]

Where [6] appears, read: day 6, single agent vs control (1-AA 4 mM, TCP 300 nM, C646 10 μM, CP 5 μM, shRNAs vs shScr).

Entries after “also recorded” stand apart in the source; their conditions may differ. Where two headings read alike, the source gives them in different places.

With `O=C(c1c2ccccc2cc2ccccc12)N1CCC(N2CCCC(C(=O)N3CCOCC3)C2)CC1` (stereo not shown) [CP], in assay [1], the “degranulated NK cells (CD3-CD56+CD16+CD107+ cells)” value is on record as 18.3 % of the population, the “increase in degranulated NK cells vs untreated control” value was “more than 5 fold”, the basal degranulation entry was “higher than ctrl” and the “level of degranulated NK cells when exposed to K562 cells” value is recorded as “further increased; also recorded: increased degranulation”. Further, the “HE-derived CD43+CD45+ (CD45+) cell population” value (“HE-derived CD43+CD45+” for short) in assay [2] (setting [6]) is given as “had the same effect as DCA”.

For `CC1=NN(c2ccc(C(=O)O)cc2)C(=O)/C1=C/C1=CC=C(c2cc(C)c(C)cc2[NH+]([O-])O)C1` (stereo not shown) [C646], the “HE-derived CD43+CD45+” value in assay [2] (setting [6]) was “did not have an effect”.

`N#CC(C#N)=NNc1ccc(OC(F)(F)F)cc1` [FCCP, Carbonyl cyanide 4-(trifluoromethoxy)phenylhydrazone]: the TMRE signal entry in assay [3] is “abrogated the TMRE signal”.

As for `CC(C)CCC[C@@H](C)[C@H]1CC[C@H]2[C@@H]3CC=C4C[C@@H](O)CC[C@]4(C)[C@H]3CC[C@]12C` [cholesterol], in assay [1], the “degranulated NK cells (CD3-CD56+CD16+CD107+ cells)” value is recorded as 7.47 % of the population, the “increase in degranulated NK cells vs untreated control” value is reported as “more than 2 fold”, the basal degranulation result was “higher than ctrl” and the “level of degranulated NK cells when exposed to K562 cells” value is “further increased; also recorded: except for Cholesterol treated cells”.

As to `COCCNC(=O)Nc1ccc2nc(-c3cccs3)c(-c3cccs3)nc2c1` [ACSS2i], the “DCA effect on CD43+CD45+ cells under co-treatment” value in assay [2] (day 6 of HE subculture, ACSS2i 5 μM with DCA 3 mM) is “did not perturb the DCA effect”.

Regarding `N[C@@H]1C[C@H]1c1ccccc1` (racemic) [TCP, Tranylcypromine], in assay [2], the “HE-derived CD43+CD45+” value is “more”, the “increase in CD43+GPA+ cell frequency following UK5099 treatment when LSD1 is blocked or downregulated” value was “could not detect an increase” and the “myeloid differentiation (CD43+CD45+CD33+CD11b+)” value is “specifically increased myeloid differentiation”.

As for `O=CC[C@@H](O)[C@H](O)[C@H](O)CO` [2-DG, 2-Deoxy-D-glucose], the “proliferation rate (CellTrace Violet)” value in assay [4] and in assay [5] was “significantly reduced” throughout. Besides, the “CD43+GPA+ cell population” value in assay [2] (day 3, 2-DG 1 mM) was “less than 50 % of the control”. Besides, the “CD43+ cell output from HE cells” value in assay [2] (day 3 of subculture, 2-DG 1 mM) is given as “significantly reduced”. The “CD43+CD45+ cell population” value in assay [2] (day 6, 2-DG 1 mM) is recorded as “less than 50 % of the control”.

For `CC(C)c1c(C(=O)Nc2ccccc2)c(-c2ccccc2)c(-c2ccc(F)cc2)n1CC[C@@H](O)C[C@@H](O)CC(=O)O` [atorvastatin], the “DCA effect on CD43+CD45+ cells under co-treatment” value in assay [2] (day 3, Ato 0.5 μM with DCA 3 mM) is recorded as “abrogated the effect of DCA”.

On to `CC(/C=C/C(=O)NO)=C\[C@@H](C)C(=O)c1ccc(N(C)C)cc1` [TSA, Trichostatin A], for which the “emergence of CD43+ hematopoietic cells” value in assay [2] (day 3, TSA 60 nM) is recorded as “impaired the emergence”.
